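Growth conditions: 96-well plates. Treatment: test compound, 48 hours, 5 concentrations. Analysis: linear interpolation between bracketing concentrations; unreached endpoints set to highest concentration. GI50 = concentration required for 50% inhibition of growth. At the TGI there is no net growth.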
Assays:
Experiment in all cases: NCI tumour cell line growth inhibition, 48 h
[1] = test system: RXF 393 renal
[2] = test system: A549 NSCLC
[3] = test system: NCI-H460 lung
[4] = test system: UO-31 renal
[5] = test system: U251 CNS
[6] = test system: TK-10 renal
[7] = test system: M19-MEL melanoma
[8] = test system: ACHN renal
[9] = test system: MALME-3M melanoma
[10] = test system: COLO 205 colon
[11] = test system: NCI-H226 lung
[12] = test system: IGROV1 ovarian
[13] = test system: XF 498 CNS
[14] = test system: SNB-19 CNS
[15] = test system: 786-0 renal
[16] = test system: HOP-92 NSCLC
[17] = test system: HOP-18 NSCLC
[18] = test system: SF-268 CNS
[19] = test system: SN12C renal
[20] = test system: SW-620 colon
[21] = test system: M14 melanoma
[22] = test system: OVCAR-3 ovarian
[23] = test system: NCI-H522 lung
[24] = test system: HOP-62 NSCLC
[25] = test system: LOX IMVI melanoma
[26] = test system: HL-60(TB) leukemia
[27] = test system: HCT-116 colon
[28] = test system: SK-MEL-28 melanoma
[29] = test system: HT29 colon
[30] = test system: HCC-2998 colon
[31] = test system: CCRF-CEM leukemia
[32] = test system: SNB-78 CNS
[33] = test system: OVCAR-5 ovarian
[34] = test system: SF-539 CNS
[35] = test system: LXFL 529 NSCLC
[36] = test system: RPMI-8226 leukemia
[37] = test system: SK-MEL-2 melanoma
[38] = test system: OVCAR-8 ovarian
[39] = test system: SR leukemia
[40] = test system: SK-OV-3 ovarian
[41] = test system: DLD-1 colon
[42] = test system: DMS 114 small cell lung
[43] = test system: DMS 273 small cell lung
[44] = test system: UACC-62 melanoma
[45] = test system: SK-MEL-5 melanoma
[46] = test system: KM20L2 colon
[47] = test system: HCT-15 colon
[48] = test system: K-562 leukemia
[49] = test system: OVCAR-4 ovarian
[50] = test system: KM12 colon
[51] = test system: SF-295 CNS
[52] = test system: UACC-257 melanoma
[53] = test system: EKVX NSCLC
[54] = test system: MOLT-4 leukemia
[55] = test system: SNB-75 CNS
[56] = test system: NCI-H23 lung
[57] = test system: A498 renal
[58] = test system: CAKI-1 renal

For `COc1cc(C)cc2c1[nH]c1ccccc12`, the TGI [1] was 22.5 µM, the TGI [2] was > 25 µM and the GI50 [3] was 7.83 µM. The TGI [3] was > 25 µM, the GI50 [4] was 15 µM and the TGI [4] was > 25 µM. For the same compound, the GI50 [5] was 10.4 µM, the TGI [5] was > 25 µM and the TGI [6] was > 25 µM. The GI50 [7] was 18.3 µM, the TGI [7] was > 25 µM and the GI50 [8] was 23.4 µM. The TGI [8] was > 25 µM, the GI50 [9] was 8.11 µM and the TGI [9] was > 25 µM. For the same compound, the GI50 [10] was 12.4 µM, the TGI [10] was > 25 µM and the GI50 [11] was 8.44 µM. For the same compound, the TGI [11] was > 25 µM, the GI50 [12] was 14.8 µM and the TGI [12] was > 25 µM. The GI50 [13] was 22.6 µM, the TGI [13] was > 25 µM and the TGI [14] was > 25 µM. The GI50 [15] was 9.37 µM, the TGI [15] was > 25 µM and the GI50 [16] was 23.5 µM. The TGI [16] was > 25 µM, the GI50 [17] was 0.29 µM and the TGI [17] was 12.7 µM. For the same compound, the GI50 [18] was 14.3 µM, the TGI [18] was > 25 µM and the GI50 [19] was 14.1 µM. For the same compound, the TGI [19] was > 25 µM, the GI50 [20] was 8.35 µM and the TGI [20] was > 25 µM. The GI50 [21] was 7.24 µM, the TGI [21] was 22.1 µM and the TGI [22] was > 25 µM. It also gave a GI50 [23] of 4.24 µM, a TGI [23] of 13.3 µM and a TGI [24] of 18.6 µM. The GI50 [25] was 12.7 µM, the TGI [25] was > 25 µM and the GI50 [26] was 6.88 µM. For the same compound, the TGI [26] was > 25 µM, the GI50 [27] was 11.4 µM and the TGI [27] was > 25 µM. For the same compound, the GI50 [28] was 16.3 µM, the TGI [28] was > 25 µM and the GI50 [29] was 7.78 µM. For the same compound, the TGI [29] was > 25 µM, the GI50 [30] was 14.9 µM and the TGI [30] was > 25 µM. The GI50 [31] was 15.4 µM, the TGI [31] was > 25 µM and the TGI [32] was > 25 µM. The TGI [33] was > 25 µM, the GI50 [34] was 6.01 µM and the TGI [34] was 14.5 µM. The GI50 [35] was 18.3 µM, the TGI [35] was > 25 µM and the TGI [36] was > 25 µM. The GI50 [37] was 7.33 µM, the TGI [37] was > 25 µM and the TGI [38] was 23.9 µM. For the same compound, the GI50 [39] was 10.3 µM, the TGI [39] was > 25 µM and the GI50 [40] was 20.9 µM. The TGI [40] was > 25 µM, the GI50 [41] was 10.5 µM and the TGI [41] was > 25 µM. The TGI [42] was > 25 µM, the GI50 [43] was 7.73 µM and the TGI [43] was > 25 µM. The GI50 [44] was 15 µM, the TGI [44] was > 25 µM and the GI50 [45] was 9.19 µM. The TGI [45] was > 25 µM, the GI50 [46] was 7.53 µM and the TGI [46] was 19.6 µM. The GI50 [47] was 7.45 µM, the TGI [47] was > 25 µM and the TGI [48] was > 25 µM. For the same compound, the TGI [49] was > 25 µM, the GI50 [50] was 8.12 µM and the TGI [50] was > 25 µM.
`Cc1cc(C)nc(NS(=O)(=O)c2ccc(NC(=O)c3cccc4c(Nc5ccc(S(=O)(=O)Nc6nc(C)cc(C)n6)cc5)c5ccc(Cl)cc5nc34)cc2)n1` was tested, and the TGI [1] was > 100 µM, the TGI [2] was > 100 µM and the TGI [3] was > 100 µM. The TGI [4] was 82 µM, the TGI [5] was > 100 µM and the TGI [6] was > 100 µM. The TGI [7] was > 100 µM, the TGI [8] was > 100 µM and the TGI [9] was 50.3 µM. The TGI [51] was > 100 µM, the TGI [10] was > 100 µM and the TGI [12] was > 100 µM. The TGI [13] was 59.8 µM, the TGI [14] was > 100 µM and the TGI [15] was > 100 µM. The TGI [16] was 62.6 µM, the TGI [17] was > 100 µM and the TGI [18] was > 100 µM. The TGI [19] was > 100 µM, the TGI [20] was > 100 µM and the TGI [21] was > 100 µM. For the same compound, the TGI [22] was 58.3 µM, the TGI [23] was 54.7 µM and the TGI [24] was 71.9 µM. For the same compound, the TGI [25] was > 100 µM, the TGI [27] was > 100 µM and the TGI [52] was 62.9 µM. The TGI [28] was > 100 µM, the TGI [29] was > 100 µM and the TGI [53] was > 100 µM. The TGI [30] was > 100 µM, the TGI [31] was 79.8 µM and the TGI [54] was > 100 µM. The TGI [55] was 67.9 µM, the TGI [32] was > 100 µM and the TGI [56] was > 100 µM. For the same compound, the TGI [33] was > 100 µM, the TGI [34] was > 100 µM and the TGI [35] was > 100 µM. The TGI [57] was > 100 µM, the TGI [36] was 91.9 µM and the TGI [37] was > 100 µM. The TGI [38] was > 100 µM, the TGI [40] was 77.1 µM and the TGI [41] was > 100 µM. The TGI [42] was 79.8 µM, the TGI [43] was > 100 µM and the TGI [44] was 56.2 µM. The TGI [45] was 42.7 µM, the TGI [46] was > 100 µM and the TGI [58] was 77.1 µM. For the same compound, the TGI [47] was > 100 µM, the TGI [48] was 88.6 µM and the TGI [49] was > 100 µM. The TGI [50] was > 100 µM.
With `C#C[C@]1(O)CCC2C3CCc4cc(Oc5nc(F)nc(-n6c(C)nc7cc8ccccc8cc76)n5)ccc4C3CCC21C` (some centres undefined) the TGI [1] was > 100 µM, the TGI [2] was > 100 µM and the TGI [3] was 65.9 µM. The TGI [4] was > 100 µM, the TGI [5] was > 100 µM and the TGI [6] was > 100 µM. For the same compound, the TGI [7] was > 100 µM, the TGI [8] was > 100 µM and the TGI [9] was > 100 µM. For the same compound, the TGI [51] was > 100 µM, the TGI [10] was 45.8 µM and the TGI [11] was > 100 µM. For the same compound, the TGI [12] was > 100 µM, the TGI [13] was > 100 µM and the TGI [14] was > 100 µM. The TGI [15] was > 100 µM, the TGI [16] was > 100 µM and the TGI [17] was > 100 µM. For the same compound, the TGI [18] was > 100 µM, the TGI [19] was > 100 µM and the TGI [20] was > 100 µM. For the same compound, the TGI [21] was > 100 µM, the TGI [22] was > 100 µM and the TGI [23] was > 100 µM. The TGI [24] was > 100 µM, the TGI [25] was > 100 µM and the TGI [26] was > 100 µM. For the same compound, the TGI [27] was > 100 µM, the TGI [52] was > 100 µM and the TGI [29] was > 100 µM. The TGI [53] was > 100 µM, the TGI [30] was > 100 µM and the TGI [31] was > 100 µM. For the same compound, the TGI [54] was > 100 µM, the TGI [55] was > 100 µM and the TGI [32] was > 100 µM. The TGI [56] was > 100 µM, the TGI [34] was > 100 µM and the TGI [35] was > 100 µM. The TGI [36] was > 100 µM, the TGI [37] was > 100 µM and the TGI [38] was > 100 µM. For the same compound, the TGI [40] was > 100 µM, the TGI [41] was > 100 µM and the TGI [42] was 53.8 µM. The TGI [43] was > 100 µM, the TGI [44] was > 100 µM and the TGI [45] was > 100 µM. The TGI [46] was > 100 µM, the TGI [48] was > 100 µM and the TGI [50] was > 100 µM.
For `CCOc1ccccc1N1C(=O)C(=O)C(c2nc3ccccc3s2)C(=O)C1=O`, the TGI [1] was > 100 µM, the TGI [2] was > 100 µM and the TGI [3] was > 100 µM. For the same compound, the TGI [4] was > 100 µM, the TGI [5] was > 100 µM and the TGI [6] was > 100 µM. For the same compound, the TGI [7] was > 100 µM, the TGI [8] was 54 µM and the TGI [9] was > 100 µM. The TGI [51] was > 100 µM, the TGI [10] was > 100 µM and the TGI [11] was > 100 µM. For the same compound, the TGI [12] was > 100 µM, the TGI [13] was > 100 µM and the TGI [14] was > 100 µM. The TGI [15] was 20.8 µM, the TGI [16] was > 100 µM and the TGI [17] was 69.8 µM. The TGI [18] was > 100 µM, the TGI [19] was > 100 µM and the TGI [20] was > 100 µM. For the same compound, the TGI [21] was > 100 µM, the TGI [22] was 44.2 µM and the TGI [24] was > 100 µM. For the same compound, the TGI [25] was > 100 µM, the TGI [27] was > 100 µM and the TGI [52] was > 100 µM. The TGI [28] was > 100 µM, the TGI [29] was > 100 µM and the TGI [53] was > 100 µM. For the same compound, the TGI [30] was > 100 µM, the TGI [55] was > 100 µM and the TGI [32] was > 100 µM. The TGI [56] was > 100 µM, the TGI [33] was > 100 µM and the TGI [34] was > 100 µM. For the same compound, the TGI [35] was > 100 µM, the TGI [57] was 39 µM and the TGI [36] was > 100 µM. For the same compound, the TGI [37] was > 100 µM, the TGI [38] was > 100 µM and the TGI [40] was > 100 µM. The TGI [41] was > 100 µM, the TGI [42] was > 100 µM and the TGI [43] was > 100 µM. The TGI [44] was > 100 µM, the TGI [46] was > 100 µM and the TGI [58] was > 100 µM. For the same compound, the TGI [47] was > 100 µM, the TGI [49] was 17.8 µM and the TGI [50] was > 100 µM.
